The values below come from ChEMBL document CHEMBL4680060, “Polybasic peptide-levofloxacin conjugates potentiate fluoroquinolones and other classes of antibiotics against multidrug-resistant Gram-negative bacteria” (Medchemcomm, 2019).

≈ marks a conversion by molar mass, not a printed value.

Test [1] deals with Staphylococcus aureus. The test can be described thus: Antibacterial activity against methicillin-resistant Staphylococcus aureus ATCC 33592 assessed as inhibition of visible growth incubated for 18 hrs by CLSI protocol based microbroth dilution method. In kind it is functional.
A further test has as its system Acinetobacter baumannii. As to the kind of experiment: Antibacterial activity against Acinetobacter baumannii clinical isolate CAN-ICU 63169 assessed as inhibition of visible growth incubated for 18 hrs by CLSI protocol based microbroth dilution method. In kind it is functional. In general terms: In broth dilution the organism is exposed to a series of concentrations in liquid medium.

Test [2] deals with Pseudomonas aeruginosa. As to the kind of experiment: Potentiation of moxifloxacin-induced antibacterial activity against wild type Pseudomonas aeruginosa PAO1 assessed as moxifloxacin MIC measured after 18 hrs by CLSI protocol based microbroth dilution method (reference value: 1 ug/ml). In kind it is functional.
A further test has as its system Enterobacter cloacae. As to the kind of experiment: Antibacterial activity against Enterobacter cloacae 117029 assessed as inhibition of visible growth incubated for 18 hrs by CLSI protocol based microbroth dilution method. It counts as functional.
In a further test the test system is Klebsiella pneumoniae. As to the kind of experiment: Antibacterial activity against Klebsiella pneumoniae 116381 assessed as inhibition of visible growth incubated for 18 hrs by CLSI protocol based microbroth dilution method. In kind it is functional.
Another test concerns Escherichia coli. The test can be described thus: Antibacterial activity against Escherichia coli ATCC 25922 assessed as inhibition of visible growth incubated for 18 hrs by CLSI protocol based microbroth dilution method. In kind it is functional.
Test [3] concerns Pseudomonas aeruginosa. As to the kind of experiment: Potentiation of levofloxacin-induced antibacterial activity against wild type Pseudomonas aeruginosa PAO1 assessed as levofloxacin MIC measured after 18 hrs by CLSI protocol based microbroth dilution method (reference value: 0.5 ug/ml). In kind it is functional.
For test [4], the system named is Stenotrophomonas maltophilia. As to the kind of experiment: Antibacterial activity against Stenotrophomonas maltophilia clinical isolate CAN-ICU 62584 assessed as inhibition of visible growth incubated for 18 hrs by CLSI protocol based microbroth dilution method. It counts as functional.
Another test concerns Enterococcus faecalis. As to the kind of experiment: Antibacterial activity against Enterococcus faecalis ATCC 29212 assessed as inhibition of visible growth incubated for 18 hrs by CLSI protocol based microbroth dilution method. It counts as functional.
Test [5] has as its system Staphylococcus epidermidis. The test can be described thus: Antibacterial activity against methicillin-susceptible Staphylococcus epidermidis clinical isolate CANWARD-2008 81388 assessed as inhibition of visible growth incubated for 18 hrs by CLSI protocol based microbroth dilution method. In kind it is functional.
For test [6], the system named is Staphylococcus aureus. The test can be described thus: Antibacterial activity against methicillin-resistant Staphylococcus aureus clinical isolate CAN-ICU 61589 assessed as inhibition of visible growth incubated for 18 hrs by CLSI protocol based microbroth dilution method. In kind it is functional.
In test [7] the test system is Pseudomonas aeruginosa. The test can be described thus: Potentiation of ciprofloxacin-induced antibacterial activity against wild type Pseudomonas aeruginosa PAO1 assessed as ciprofloxacin MIC measured after 18 hrs by CLSI protocol based microbroth dilution method (reference value: 0.125 ug/ml). In kind it is functional.
Test [8] relates to Staphylococcus aureus. As to the kind of experiment: Antibacterial activity against Staphylococcus aureus ATCC 29213 assessed as inhibition of visible growth incubated for 18 hrs by CLSI protocol based microbroth dilution method. In kind it is functional.
Test [9] relates to Pseudomonas aeruginosa. As to the kind of experiment: Antibacterial activity against Pseudomonas aeruginosa ATCC 27853 assessed as inhibition of visible growth incubated for 18 hrs by CLSI protocol based microbroth dilution method. It counts as functional.
Another test deals with Streptococcus pneumoniae. The test can be described thus: Antibacterial activity against Streptococcus pneumoniae ATCC 49619 assessed as inhibition of visible growth incubated for 18 hrs by CLSI protocol based microbroth dilution method. It counts as functional.
Test [10] relates to Pseudomonas aeruginosa. The test can be described thus: microbe, parasite or virus in culture. The conditions noted are these: PAO1, 18 h.
The test system of test [11] is Pseudomonas aeruginosa. As to the kind of experiment: microbe, parasite or virus in culture. The conditions noted are these: PAO1, 18 h. This is another data set of the same source.
Test [12] has as its system Pseudomonas aeruginosa. The test can be described thus: microbe, parasite or virus in culture. Conditions: PAO1, 18 h. This is another data set of the same source.

On to `C[C@H]1COc2c(N3CCN(C)CC3)c(F)cc3c(=O)c(C(=O)N[C@@H](CCN)C(N)=O)cn1c23`, for which the MIC is over 128 µg/mL with Staphylococcus aureus [1]; over 128 µg/mL in the test on Acinetobacter baumannii; 1 µg/mL with Pseudomonas aeruginosa [2]; over 128 µg/mL in the test on Enterobacter cloacae; over 128 µg/mL with Klebsiella pneumoniae; 128 µg/mL (≈ 278 µM) in the test on Escherichia coli. Moreover, the MIC was 0.5 µg/mL in the test with Pseudomonas aeruginosa [3]; over 128 µg/mL in [4]; over 128 µg/mL in the test on Enterococcus faecalis; over 128 µg/mL in test [5]; over 128 µg/mL with Staphylococcus aureus [6]; 0.125 µg/mL in the test on Pseudomonas aeruginosa [7]. Moreover, the MIC in the test with Staphylococcus aureus [8], in the test on Pseudomonas aeruginosa [9] and in the test with Streptococcus pneumoniae was over 128 µg/mL in each case.

In the case of `C[C@H]1COc2c(N3CCN(C)CC3)c(F)cc3c(=O)c(C(=O)N[C@@H](CCN)C(=O)N[C@@H](CCN)C(N)=O)cn1c23`, the MIC in the test on Staphylococcus aureus [1] was over 128 µg/mL; in the test with Acinetobacter baumannii, over 128 µg/mL; with Pseudomonas aeruginosa [2], 1 µg/mL; in the test with Enterobacter cloacae, over 128 µg/mL; in the test on Klebsiella pneumoniae, over 128 µg/mL; in the test with Escherichia coli, 128 µg/mL (≈ 228 µM). Further, the MIC in the test on Pseudomonas aeruginosa [3] was 0.25 µg/mL; in test [4], over 128 µg/mL; in the test with Enterococcus faecalis, over 128 µg/mL; in test [5], over 128 µg/mL; in the test with Staphylococcus aureus [6], over 128 µg/mL; in the test on Pseudomonas aeruginosa [7] it was 0.125 µg/mL. Besides, the MIC in the test on Staphylococcus aureus [8], in the test on Pseudomonas aeruginosa [9] and in the test on Streptococcus pneumoniae was over 128 µg/mL throughout.

With `O=C(O)c1cn(C2CC2)c2cc(N3CCNCC3)c(F)cc2c1=O` [CIPROFLOXACIN], the MIC was determined as 32 µg/mL (≈ 96.6 µM) against Pseudomonas aeruginosa [10] and 16 µg/mL (≈ 48.3 µM) against Pseudomonas aeruginosa [11].

Consider `COc1c(N2C[C@@H]3CCCN[C@@H]3C2)c(F)cc2c(=O)c(C(=O)O)cn(C3CC3)c12` [MOXIFLOXACIN], for which the MIC in the test with Pseudomonas aeruginosa [10] was found to be 8 µg/mL (≈ 19.9 µM); against Pseudomonas aeruginosa [11] it was 8 µg/mL (≈ 19.9 µM); in the test on Pseudomonas aeruginosa [12] it was 16 µg/mL (≈ 39.9 µM).

Regarding `C[C@H]1COc2c(N3CCN(C)CC3)c(F)cc3c(=O)c(C(=O)N[C@H](CN)CCC(=O)O)cn1c23`, the MIC in the test on Staphylococcus aureus [1] is over 128 µg/mL; in the test on Acinetobacter baumannii, over 128 µg/mL; in the test with Pseudomonas aeruginosa [2] it was 1 µg/mL; in the test with Enterobacter cloacae, over 128 µg/mL; in the test on Klebsiella pneumoniae it was over 128 µg/mL; in the test with Escherichia coli, over 128 µg/mL. For the same compound, the MIC in the test on Pseudomonas aeruginosa [3] is 0.5 µg/mL; in test [4], over 128 µg/mL; in the test with Enterococcus faecalis, over 128 µg/mL; in test [5], over 128 µg/mL; in the test with Staphylococcus aureus [6] it was over 128 µg/mL; in the test with Pseudomonas aeruginosa [7], 0.125 µg/mL. In addition, the MIC with Staphylococcus aureus [8], in the test on Pseudomonas aeruginosa [9] and with Streptococcus pneumoniae was over 128 µg/mL each time.

`C[C@H]1COc2c(N3CCN(C)CC3)c(F)cc3c(=O)c(C(=O)O)cn1c23.C[C@H]1COc2c(N3CCN(C)CC3)c(F)cc3c(=O)c(C(=O)O)cn1c23.O` [LEVOFLOXACIN]: the MIC in the test with Staphylococcus aureus [1] is at most 0.25 µg/mL; in the test with Acinetobacter baumannii, 1 µg/mL; with Pseudomonas aeruginosa [11], 16 µg/mL; in the test on Enterobacter cloacae, 0.125 µg/mL; with Klebsiella pneumoniae, 128 µg/mL; in the test on Escherichia coli it was at most 0.25 µg/mL. Also, the MIC was 4 µg/mL in test [4]; 2 µg/mL in the test with Enterococcus faecalis; at most 0.25 µg/mL in test [5]; over 128 µg/mL in the test on Staphylococcus aureus [6]; at most 0.25 µg/mL in the test with Staphylococcus aureus [8]; 16 µg/mL against Pseudomonas aeruginosa [12].

As to `C[C@H]1COc2c(N3CCN(C)CC3)c(F)cc3c(=O)c(C(=O)NCCCCCCCCCCCC(=O)N[C@@H](CCN)C(N)=O)cn1c23`, the MIC in the test on Staphylococcus aureus [1] was over 128 µg/mL; in the test with Acinetobacter baumannii it was over 128 µg/mL; with Pseudomonas aeruginosa [2], 1 µg/mL; with Enterobacter cloacae it was 128 µg/mL (≈ 195 µM); in the test with Klebsiella pneumoniae, over 128 µg/mL; with Escherichia coli it was over 128 µg/mL. In addition, the MIC in the test on Pseudomonas aeruginosa [3] is 0.25 µg/mL; in test [4] it was over 128 µg/mL; in the test on Enterococcus faecalis it was over 128 µg/mL; in [5] it was 64 µg/mL (≈ 97.3 µM); in the test with Staphylococcus aureus [6], 128 µg/mL (≈ 195 µM); in the test with Pseudomonas aeruginosa [7], 0.063 µg/mL. Further, the MIC was 128 µg/mL (≈ 195 µM) in the test on Staphylococcus aureus [8], over 128 µg/mL with Pseudomonas aeruginosa [9] and over 128 µg/mL with Streptococcus pneumoniae.

On to `C[C@H]1COc2c(N3CCN(C)CC3)c(F)cc3c(=O)c(C(=O)N[C@@H](CCC(=O)O)C(=O)N[C@H](CN)CCC(=O)O)cn1c23`, for which the MIC is over 128 µg/mL in the test on Staphylococcus aureus [1]; over 128 µg/mL in the test on Acinetobacter baumannii; 1 µg/mL in the test on Pseudomonas aeruginosa [2]; over 128 µg/mL with Enterobacter cloacae; over 128 µg/mL in the test on Klebsiella pneumoniae; 128 µg/mL (≈ 212 µM) in the test with Escherichia coli. The MIC in the test with Pseudomonas aeruginosa [3] was 0.5 µg/mL; in test [4], 16 µg/mL (≈ 26.5 µM); in the test on Enterococcus faecalis, over 128 µg/mL; in test [5], over 128 µg/mL; in the test on Staphylococcus aureus [6], over 128 µg/mL; in the test with Pseudomonas aeruginosa [7], 0.125 µg/mL. Further, the MIC with Staphylococcus aureus [8], in the test on Pseudomonas aeruginosa [9] and with Streptococcus pneumoniae was over 128 µg/mL each time.
